# Assay results published in US12492188B2, “1H-benzo[D]imidazole derivatives as TLR9 inhibitors for the treatment of fibrosis” (BRISTOL-MYERS SQUIBB COMPANY, priority 2020, dated 2025).
# pIC50: −log10 of the molar value. Read-outs that look alike come from different tables or passages of the source.
# What was measured:
# Format in all cases: cell-based
# human TLR8 = target: T1, human TLR8 (Homo sapiens, UniProt Q9NR97); assay: TLR8 inhibition reporter assay (HEK-Blue cells, secreted embryonic alkaline phosphatase reporter); details: HEK-Blue cells overexpressing human TLR8, stimulated with R848 15.9 μM; read-out: TLR 8 IC50
# T1 construct: host or cells: HEK-Blue cells (HEK293-derived reporter line)
# T1 sequence (Q9NR97 27-1041): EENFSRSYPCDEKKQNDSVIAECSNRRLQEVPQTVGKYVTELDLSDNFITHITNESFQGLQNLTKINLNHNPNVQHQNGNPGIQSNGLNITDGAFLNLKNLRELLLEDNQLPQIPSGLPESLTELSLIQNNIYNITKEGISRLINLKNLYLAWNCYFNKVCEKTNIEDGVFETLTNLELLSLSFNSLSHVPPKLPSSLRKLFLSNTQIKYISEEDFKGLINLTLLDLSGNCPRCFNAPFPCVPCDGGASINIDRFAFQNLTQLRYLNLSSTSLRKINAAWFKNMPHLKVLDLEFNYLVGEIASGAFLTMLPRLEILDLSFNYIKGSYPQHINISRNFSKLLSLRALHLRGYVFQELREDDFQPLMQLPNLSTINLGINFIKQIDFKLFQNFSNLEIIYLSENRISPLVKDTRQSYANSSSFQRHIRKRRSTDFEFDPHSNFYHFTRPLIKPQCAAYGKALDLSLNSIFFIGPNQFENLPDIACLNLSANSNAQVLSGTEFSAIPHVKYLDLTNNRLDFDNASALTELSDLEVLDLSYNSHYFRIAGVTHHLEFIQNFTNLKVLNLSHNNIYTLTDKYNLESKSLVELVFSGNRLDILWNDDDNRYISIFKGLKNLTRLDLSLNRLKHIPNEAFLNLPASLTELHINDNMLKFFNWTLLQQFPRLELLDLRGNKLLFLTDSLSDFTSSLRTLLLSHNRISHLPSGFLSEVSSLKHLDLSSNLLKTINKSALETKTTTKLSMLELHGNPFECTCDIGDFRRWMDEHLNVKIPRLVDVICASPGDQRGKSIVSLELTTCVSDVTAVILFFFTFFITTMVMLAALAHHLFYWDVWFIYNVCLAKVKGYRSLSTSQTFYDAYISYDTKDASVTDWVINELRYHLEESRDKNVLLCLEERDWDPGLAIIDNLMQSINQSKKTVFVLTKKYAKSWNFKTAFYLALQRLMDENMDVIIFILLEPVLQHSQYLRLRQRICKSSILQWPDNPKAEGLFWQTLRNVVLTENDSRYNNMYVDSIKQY
# Summary of the method: (§1)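 HEK-Blue cells overexpressing the respective receptor, with an NF-κB/AP-1-driven SEAP reporter, were pre-treated with compound (0.05 nM–50 μM) for 30 min at room temperature. Stimulation used gardiquimod 7.5 μM (TLR7), R848 15.9 μM (TLR8) or ODN2006 5 nM (TLR9); SEAP was read after 22 h at 37 °C as percent inhibition.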
# human TLR7 = target: T2, human TLR7 (Homo sapiens, UniProt Q9NYK1); assay: TLR7 inhibition reporter assay (HEK-Blue cells, secreted embryonic alkaline phosphatase reporter); details: HEK-Blue cells overexpressing human TLR7, stimulated with gardiquimod 7.5 μM; read-out: TLR 7 IC50
# T2 construct: host or cells: HEK-Blue cells (HEK293-derived reporter line)
# T2 sequence (Q9NYK1 27-1049): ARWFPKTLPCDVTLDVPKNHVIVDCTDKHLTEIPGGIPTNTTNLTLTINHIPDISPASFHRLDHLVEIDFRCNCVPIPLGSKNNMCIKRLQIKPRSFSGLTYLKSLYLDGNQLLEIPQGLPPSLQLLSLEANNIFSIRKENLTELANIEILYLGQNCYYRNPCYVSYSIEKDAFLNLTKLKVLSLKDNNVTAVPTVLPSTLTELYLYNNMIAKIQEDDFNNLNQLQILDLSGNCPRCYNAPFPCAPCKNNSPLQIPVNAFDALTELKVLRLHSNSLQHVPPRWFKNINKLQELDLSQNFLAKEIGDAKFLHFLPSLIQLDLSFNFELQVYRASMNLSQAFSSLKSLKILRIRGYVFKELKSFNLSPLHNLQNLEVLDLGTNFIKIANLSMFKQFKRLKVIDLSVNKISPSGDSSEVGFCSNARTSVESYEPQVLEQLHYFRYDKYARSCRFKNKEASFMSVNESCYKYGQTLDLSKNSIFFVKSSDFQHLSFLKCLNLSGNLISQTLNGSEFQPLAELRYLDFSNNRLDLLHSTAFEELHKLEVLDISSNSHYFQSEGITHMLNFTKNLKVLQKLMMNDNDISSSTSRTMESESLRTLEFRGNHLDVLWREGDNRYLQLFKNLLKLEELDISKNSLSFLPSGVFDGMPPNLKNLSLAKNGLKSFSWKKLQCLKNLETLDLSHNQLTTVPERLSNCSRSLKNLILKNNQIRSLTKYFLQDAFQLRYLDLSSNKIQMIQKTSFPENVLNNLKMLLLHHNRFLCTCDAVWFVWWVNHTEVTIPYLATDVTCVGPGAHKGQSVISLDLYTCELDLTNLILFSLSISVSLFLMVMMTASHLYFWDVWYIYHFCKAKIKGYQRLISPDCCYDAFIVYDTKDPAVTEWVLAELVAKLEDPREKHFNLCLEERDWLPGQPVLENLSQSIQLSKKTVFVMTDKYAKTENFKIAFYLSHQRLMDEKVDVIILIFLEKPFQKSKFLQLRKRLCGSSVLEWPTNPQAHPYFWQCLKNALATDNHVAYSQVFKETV
# Summary of the method: as §1
# human TLR9 = target: T3, human TLR9 (Homo sapiens, UniProt Q9NR96); assay: TLR9 inhibition reporter assay (HEK-Blue cells, secreted embryonic alkaline phosphatase reporter)
# T3 construct: host or cells: HEK-Blue cells (HEK293-derived reporter line)
# T3 sequence (Q9NR96 26-1032): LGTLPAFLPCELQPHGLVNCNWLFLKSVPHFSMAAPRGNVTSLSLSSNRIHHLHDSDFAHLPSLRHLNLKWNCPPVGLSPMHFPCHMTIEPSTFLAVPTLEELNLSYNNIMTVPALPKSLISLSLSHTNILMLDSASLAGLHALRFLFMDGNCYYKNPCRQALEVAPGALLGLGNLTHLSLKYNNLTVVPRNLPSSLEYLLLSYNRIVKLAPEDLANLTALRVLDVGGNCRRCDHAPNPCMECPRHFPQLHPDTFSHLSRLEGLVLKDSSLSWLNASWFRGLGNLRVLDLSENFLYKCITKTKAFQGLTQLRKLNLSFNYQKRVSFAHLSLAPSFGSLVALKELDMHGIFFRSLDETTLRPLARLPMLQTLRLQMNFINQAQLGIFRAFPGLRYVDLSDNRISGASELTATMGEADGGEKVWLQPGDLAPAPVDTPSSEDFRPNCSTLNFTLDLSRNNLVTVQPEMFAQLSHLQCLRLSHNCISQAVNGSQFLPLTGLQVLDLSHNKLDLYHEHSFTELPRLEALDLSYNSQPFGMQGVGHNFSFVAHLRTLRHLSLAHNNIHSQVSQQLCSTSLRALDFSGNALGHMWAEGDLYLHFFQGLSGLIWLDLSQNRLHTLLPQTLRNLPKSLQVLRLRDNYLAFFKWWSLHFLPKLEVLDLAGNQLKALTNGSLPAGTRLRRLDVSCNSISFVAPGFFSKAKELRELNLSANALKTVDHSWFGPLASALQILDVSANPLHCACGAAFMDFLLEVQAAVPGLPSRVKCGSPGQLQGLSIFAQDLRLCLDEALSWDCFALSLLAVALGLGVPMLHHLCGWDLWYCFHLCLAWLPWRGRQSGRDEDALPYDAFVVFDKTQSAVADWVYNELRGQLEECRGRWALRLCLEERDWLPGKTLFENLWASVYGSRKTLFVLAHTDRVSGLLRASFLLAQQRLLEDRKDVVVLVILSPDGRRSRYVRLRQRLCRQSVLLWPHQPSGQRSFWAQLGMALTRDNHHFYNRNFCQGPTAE
# Summary of the method: as §1
# [1] = HEK-Blue cells overexpressing human TLR9, stimulated with ODN2006 5 nM, read-out: TLR 9 IC50
# [2] = HEK-Blue cells overexpressing human TLR9, stimulated with ODN2006 5 nM, 22 hour incubation, reporter readout
Compound,pIC50 (human TLR8),pIC50 (human TLR7),pIC50 (human TLR9),pIC50 (human TLR9; [1]),pIC50 (human TLR9; [2]),pIC50 (human TLR9; HEK-Blue human TLR9 reporter cells)
"Cn1c(-c2ccc(S(C)(=O)=O)cc2)nc2ccc(C3CCN(C4CC5CCC(C4)N5CC4CC4)CC3)c(F)c21 (stereo not shown) [Example 268, 6-(1-(8-(cyclopropylmethyl)-8-azabicyclo[3.2.1]octan-3-yl)piperidin-4-yl)-7-fluoro-1-methyl-2-(4-(methylsulfonyl)phenyl)-1H-benzo[d]imidazole]",< 4.30,4.56,7.22,7.22,–,–
"Cn1c(-c2ccc(S(C)(=O)=O)cc2)nc2cc(F)c(C3CCN(C4CC5CCC(C4)N5C4CCC4)CC3)cc21 (stereo not shown) [Example 233, 6-(1-(8-cyclobutyl-8-azabicyclo[3.2.1]octan-3-yl)piperidin-4-yl)-5-fluoro-1-methyl-2-(4-(methylsulfonyl)phenyl)-1H-benzo[d]imidazole]",< 4.30,4.54,7.24,7.24,–,–
"Cn1c(-c2ccc(S(C)(=O)=O)cc2)nc2cc(C3CCN(C4CC5CCC(C4)N5C4CCC4)CC3)cc(F)c21 (single isomer, unassigned) [Example 215, 5-(1-(8-cyclobutyl-8-azabicyclo[3.2.1]octan-3-yl)piperidin-4-yl)-7-fluoro-1-methyl-2-(4-(methylsulfonyl)phenyl)-1H-benzo[d]imidazole]",< 4.30,4.77,7.15,7.15,–,–
"COc1ccc(-c2nc3c(C)cc(C4CCN(C5CCN(C(C)C)CC5)CC4)cc3[nH]2)cc1OC [Example 11, 2-(3,4-dimethoxyphenyl)-6-(1′-isopropyl-[1,4′-bipiperidin]-4-yl)-4-methyl-1H-benzo[d]imidazole]",< 4.30,5.30,–,–,7.48,–
"Cn1c(-c2ccc(S(C)(=O)=O)cc2)nc2cc(C3CCN(C4CC5CCC(C4)N5CC4CC4)CC3)cc(F)c21 (stereo not shown) [Example 217, 5-(1-(8-(cyclopropylmethyl)-8-azabicyclo[3.2.1]octan-3-yl)piperidin-4-yl)-7-fluoro-1-methyl-2-(4-(methylsulfonyl)phenyl)-1H-benzo[d]imidazole]",< 4.30,4.89,6.89,6.90,–,–
"Cn1c(-c2ccc(S(C)(=O)=O)cc2)nc2ccc(C3CCN(C4CC5CCC(C4)N5CC4CC4)CC3)c(F)c21 (stereo not shown) [Example 269, 6-(1-(8-(cyclopropylmethyl)-8-azabicyclo[3.2.1]octan-3-yl)piperidin-4-yl)-7-fluoro-1-methyl-2-(4-(methylsulfonyl)phenyl)-1H-benzo[d]imidazole]",4.67,4.92,6.74,6.75,–,–
"Cc1cc(C2CCN(C3CC4CCC(C3)N4C3COC3)CC2)cc2c1nc(-c1ccc(S(C)(=O)=O)cc1)n2C (single isomer, unassigned) [Example 159, 1,4-dimethyl-2-(4-(methylsulfonyl)phenyl)-6-(1-(8-(oxetan-3-yl)-8-azabicyclo[3.2.1]octan-3-yl)piperidin-4-yl)-1H-benzo[d]imidazole]",< 4.60,< 4.60,6.03,6.03,–,–
"Cc1cc(-c2nc3c(C)cc(C4CCN(C5CCN(CC(C)C)CC5)CC4)cc3[nH]2)cc(C)n1 [Example 60, 2-(2,6-dimethylpyridin-4-yl)-6-(1′-isobutyl-[1,4′-bipiperidin]-4-yl)-4-methyl-1H-benzo[d]imidazole]",< 4.30,5.82,–,7.35,7.35,–
"Cn1c(-c2ccc(S(C)(=O)=O)cc2)nc2ccc(C3CCN(C4CC5CCC(C4)N5C4CCOCC4)CC3)c(F)c21 (stereo not shown) [Example 275, 7-fluoro-1-methyl-2-(4-(methylsulfonyl)phenyl)-6-(1-(8-(tetrahydro-2H-pyran-4-yl)-8-azabicyclo[3.2.1]octan-3-yl)piperidin-4-yl)-1H-benzo[d]imidazole]",< 4.30,< 4.30,7.05,7.05,–,–
"Cn1c(-c2ccc(S(C)(=O)=O)cc2)nc2cc(F)c(C3CCN(C4CC5CCC(C4)N5C4CCC4)CC3)cc21 (stereo not shown) [Example 232, 6-(1-(8-cyclobutyl-8-azabicyclo[3.2.1]octan-3-yl)piperidin-4-yl)-5-fluoro-1-methyl-2-(4-(methylsulfonyl)phenyl)-1H-benzo[d]imidazole]",< 4.30,4.65,7.35,7.35,–,–
"COCCN1C2CCC1CC(N1CCC(c3cc(F)c4nc(-c5ccc(S(C)(=O)=O)cc5)n(C)c4c3)CC1)C2 (single isomer, unassigned) [Example 291, 4-fluoro-6-(1-(8-(2-methoxyethyl)-8-azabicyclo[3.2.1]octan-3-yl)piperidin-4-yl)-1-methyl-2-(4-(methylsulfonyl)phenyl)-1H-benzo[d]imidazole]",4.46,5.74,–,7.24,–,7.24
